Each structure is given as a SMILES string.

We go through 1 compound from patent US9951089B2, “Methods of treating a fatty acid amide hydrolase-mediated condition” (INFINITY PHARMACEUTICALS, INC., priority 2010, dated 2018).

This test addresses T1, human FAAH (Homo sapiens, UniProt O00519).
T1 construct: The clone was in an ORIGENE® pCMV6-XL5 with an insert size of ˜2.2 kb
T1 sequence (O00519 50-579 limits assumed): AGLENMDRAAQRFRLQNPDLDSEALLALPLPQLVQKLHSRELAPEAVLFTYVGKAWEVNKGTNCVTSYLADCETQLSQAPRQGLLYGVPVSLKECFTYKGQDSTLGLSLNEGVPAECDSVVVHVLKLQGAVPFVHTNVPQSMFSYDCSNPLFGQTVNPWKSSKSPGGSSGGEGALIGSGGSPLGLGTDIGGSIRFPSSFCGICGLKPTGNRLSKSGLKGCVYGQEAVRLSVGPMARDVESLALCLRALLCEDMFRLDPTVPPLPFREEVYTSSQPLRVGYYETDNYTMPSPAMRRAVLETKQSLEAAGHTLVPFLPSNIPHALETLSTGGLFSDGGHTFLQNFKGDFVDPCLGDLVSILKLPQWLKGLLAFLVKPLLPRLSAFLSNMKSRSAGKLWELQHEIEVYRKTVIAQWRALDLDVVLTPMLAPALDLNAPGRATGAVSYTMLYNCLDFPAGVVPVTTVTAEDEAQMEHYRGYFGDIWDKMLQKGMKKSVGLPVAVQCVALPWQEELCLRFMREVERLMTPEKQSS
The test is described as follows: Ki determination, human FAAH (AMC-arachidonoyl amide hydrolysis, fluorescence end point). The class given is biochemical. The settings on record: hFAAH 108 μg/mL, substrate 20 μM, 30 min preincubation, 4 hours at room temperature. The source says:
A human FAAH (hFAAH) cDNA clone was purchased from Origen (Catalog #TC 119221, Accession #NM_001441.1). The clone was in an ORIGENE® pCMV6-XL5 with an insert size of ˜2.2 kb. Sequencing of the clone indicated a conservative mutation of K48R. This point mutation is possibly an allelic difference, and is far from the active site and unlikely to effect the activity. This plasmid was amplified in E. coli and isolated by precipitation. […]
Frozen cell pellets were thawed on ice and resuspended in: 12.5 mM HEPES (pH 8.0), 100 mM NaCl, and 1 mM EDTA at a ratio of 25 mL per gram of cells. […] Total protein concentrations were determined using a Bio-Rad Protein Assay (Protein Assay Dye Reagent Concentrate, cat#500-0006) ref. 5. […]
The Ki of a test compound was determined for rat and human FAAH by measuring the dose dependent inhibition of AMC-Arachidonoyl amide hydrolysis as an end point read. Assays were carried out in Corning COSTAR® 384 well flat black bottom microtiter plates (Catalog #3654) and monitored in an Envision 2100 multilabel plate reader (Perkin Elmer-Wallac), with a 355 nm (40 nm band pass) excitation filter and 460 nm (25 nm bandpass) emission filter. […]

In turn, `OB(O)c1ccc(-c2ccc(B(O)O)c(F)c2)cc1F` [IMP-4] registered a Ki of 14.1 nM.

As a reminder, the Ki is the equilibrium dissociation constant of an inhibitor or competing ligand from its target.
